Laboratory results reported in patent publication EP4745134A1 (Jiangsu Yahong Meditech Co., Ltd., priority 2023, dated 2025).
Read-outs that look alike come from different tables or passages of the source.

How the values were obtained:
[1] = system: MTAP-deficient HCT116; assay: Pharmacodynamic test in human colon cancer xenograft model (MTAP-deficient HCT116); assay type: in vivo; details: 100 mpk, orally by gavage once a day, HCT116 MTAP deficient mice xenograft
Method: The compounds (100 mpk, blank vehicle as a control) were orally administered to the HCT116 MTAP deficient mice (cell source: creative biogene-CSC-RT2701) of human colon cancer xenograft model by gavage daily during the experimental planning period. The positive compound AMG9747 was synthesized according to the method reported in the patent WO2021163344A1. The compounds were formulated as follows: weighing 100.00 mg of a test compound, adding it to 10 mL of 0.5% MC4000+0.2% Tween 80, vortexing and shaking to prepare a suspension, i.e., a dose of 100 mpk. Each group had 8 mice and was subjected to administration by gavage once a day. The tumor volume was measured once in groups before administration, and measured on days 3, 6, 10, 13, 16 and 19 respectively after administration. The positive drug (synthesized according to the patent WO2021163344A1) AMG-9747 was used as a control, and compound AMG-9747 has a structure of: [drawing 1174] Table 3. Percentage of inhibition of the compounds of the present invention on tumor growth in the human colon cancer xenograft (MTAP-deficient HCT116) model

[2] = target: PRMT5-MTA (Homo sapiens, UniProt O14744); assay: Enzymatic inhibitory activity against PRMT5-MTA (AlphaScreen); assay type: biochemical
Sequence of PRMT5-MTA (O14744 whole entry): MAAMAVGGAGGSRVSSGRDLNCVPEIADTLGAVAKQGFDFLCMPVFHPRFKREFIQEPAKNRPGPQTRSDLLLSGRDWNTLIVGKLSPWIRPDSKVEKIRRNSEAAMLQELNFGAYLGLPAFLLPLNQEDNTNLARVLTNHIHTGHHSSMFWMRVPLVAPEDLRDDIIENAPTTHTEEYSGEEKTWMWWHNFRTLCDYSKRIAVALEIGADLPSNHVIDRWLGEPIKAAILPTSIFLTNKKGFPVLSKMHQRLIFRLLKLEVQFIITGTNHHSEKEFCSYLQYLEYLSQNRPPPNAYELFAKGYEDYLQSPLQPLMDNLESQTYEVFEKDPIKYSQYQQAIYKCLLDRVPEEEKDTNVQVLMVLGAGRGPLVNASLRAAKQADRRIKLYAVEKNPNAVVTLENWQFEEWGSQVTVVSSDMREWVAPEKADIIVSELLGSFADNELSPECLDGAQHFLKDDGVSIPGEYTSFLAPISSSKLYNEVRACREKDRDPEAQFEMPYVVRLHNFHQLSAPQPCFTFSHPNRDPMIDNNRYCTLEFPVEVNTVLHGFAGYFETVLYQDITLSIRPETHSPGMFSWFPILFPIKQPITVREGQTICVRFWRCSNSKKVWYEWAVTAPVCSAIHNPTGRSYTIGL
Sequence of PRMT5-MTA (Q9BQA1 whole entry partner): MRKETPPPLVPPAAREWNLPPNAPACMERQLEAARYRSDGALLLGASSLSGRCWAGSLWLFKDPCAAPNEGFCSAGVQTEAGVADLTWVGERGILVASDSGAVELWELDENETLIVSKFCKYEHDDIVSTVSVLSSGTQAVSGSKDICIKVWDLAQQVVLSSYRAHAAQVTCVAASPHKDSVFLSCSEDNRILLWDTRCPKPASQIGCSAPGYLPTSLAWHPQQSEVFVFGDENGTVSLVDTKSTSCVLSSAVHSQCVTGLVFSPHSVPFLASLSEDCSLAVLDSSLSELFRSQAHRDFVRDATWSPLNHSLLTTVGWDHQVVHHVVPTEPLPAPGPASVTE
In short: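 PRMT5/[…] (1 nM) was preincubated for 30 min at room temperature with 1 µM […] and 2.5 µM SAM, then exposed to compound (10-point, 3-fold from 1000 nM) for 15 min at 23 °C. Histone H4 substrate (5 nM) was added and reacted for 45 min at 23 °C. Symmetric dimethyl-R3 H4 was detected by AlphaScreen and IC50 calculated.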

[3] = system: HCT116 MTAP KO cells; assay: Inhibitory activity against cell proliferation (CellTiter Glo, 6 days), HCT116 MTAP KO; assay type: cell-based; details: for IC50: Homo sapiens, HCT-116, 144 h; for Selectivity HCT 116-WT/ HCT116 MTAP KO: ratio of IC50 HCT116-WT / HCT116 MTAP KO
In short: (§1)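 Luminescence read-out (CellTiter Glo, 10 min shaking at room temperature) after 6 days of compound exposure; IC50 fitted against DMSO controls. Top dose 10000 nM, 4-fold steps, 8 points; 250 cells/well in McCoy's 5A + 10% FBS.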

[4] = system: HCT116-WT cells; assay: Inhibitory activity against cell proliferation (CellTiter Glo, 6 days), HCT116-WT; assay type: cell-based; details: 144 h
In short: as §1

[5] = HCT116 MTAP KO cells, 6 days, CellTiter Glo, read-out: HCT116 MTAP KO IC50
[6] = HCT116-WT cells, 6 days, CellTiter Glo, read-out: HCT116-WT IC50

| Structure (SMILES) | Percentage of tumor growth inhibition [1] | IC50 ([2]; read-out: IC50) | IC50 [3, 5] | Selectivity HCT 116-WT/ HCT116 MTAP KO [3] | IC50 [4, 6] | IC50 [2] | IC50 ([3]; read-out: HCT116 MTAP KO IC50 (nM)) | IC50 ([4]; read-out: HCT116-WT IC50 (nM)) |
| --- | --- | --- | --- | --- | --- | --- | --- | --- |
| Cc1cc2cc(C(=O)N(Cc3ccc(C(F)(F)F)cn3)[C@H](C)c3ncccn3)ccc2nc1N [AMG-9747, reference compound] | 68% | – | – | – | – | – | – | – |
| Cc1cc2cc(C(=O)N(Cc3ccc(C(F)(F)F)cn3)N(C)c3ncccn3)ccc2nc1N [Example 1, 2-amino-N',3-dimethyl-N'-(pyrimidin-2-yl)-N-((5-(trifluoromethyl)pyridin-2-yl)methyl) quinoline-6-carbohydrazide] | 80% | 1 nM | 32 nM | 19.47 | 623 nM | – | – | – |
| Cc1cc2cc(C(=O)N(Cc3ccc(C(F)(F)F)cn3)N(c3ncccn3)C3CC3)ccc2nc1N [Example 3, 2-amino-N'-cyclopropyl-3-methyl-N'-(pyrimidin-2-yl)-N-((5-(trifluoromethyl)pyridin-2-yl)methyl)quinoline-6-carbohydrazide] | 86% | 2.6 nM | 27 nM | 21.04 | 568 nM | – | – | – |
| Cc1cc2nc(N)c3cnn(C)c3c2cc1C(=O)N1CCCN1c1ncc(-c2ccc(N3CCN(C)CC3)nc2)cc1F [Example 478] | – | – | – | 26.01 | – | 19 nM | 166 nM | 4320 nM |
| Cc1cc2nc(N)c3cnn(C)c3c2cc1C(=O)N1CC(C)CN1c1ncc(-c2cnc3c(cnn3C)c2)cc1F (stereo not shown) [Example 479, (4-amino-1,7-dimethyl-1H-pyrazolo[4,3-c]quinolin-8-yl)(2-(3-fluoro-5-(1-methyl-1H-pyrazolo[3,4-b]pyridin-5-yl)pyridin-2-yl)-4-methylpyrazolidin-1-yl)methanone] | – | 5.3 nM | 32 nM | 39.66 | 1270 nM | – | – | – |
| Cc1cc2nc(N)c3cnn(C)c3c2cc1C(=O)N1CC(C)CN1c1ncc(-c2cncs2)cc1F (stereo not shown) [Example 481, (4-amino-1,7-dimethyl-1H-pyrazolo[4,3-c]quinolin-8-yl)(2-(3-fluoro-5-(thiazol-5-yl)pyridin-2-yl)-4-methylpyrazolidin-1-yl)methanone] | – | 3.7 nM | 15 nM | 47.20 | 708 nM | – | – | – |
| Cc1cc2nc(N)c3cnn(C)c3c2cc1C(=O)N1CC(C)CN1c1ncc(-c2cccnc2)cc1F (stereo not shown) [Example 484, (4-amino-1,7-dimethyl-1H-pyrazolo[4,3-c]quinolin-8-yl)(2-(5-fluoro-[3,3'-bipyridine]-6-yl)-4-methylpyrazolidin-1-yl)metha none] | – | 6.4 nM | 15 nM | 55.73 | 836 nM | – | – | – |
| Cc1cc2nc(N)c3cnn(C)c3c2cc1C(=O)N1CCCN1c1ncc(-c2cscn2)cc1F [Example 486, (4-amino-1,7-dimethyl-1H-pyrazolo[4,3-c]quinolin-8-yl)(2-(3-fluoro-5-(thiazol-4-yl)pyridin-2-yl)pyrazolidin-1-yl)methanone] | – | 6.8 nM | 34 nM | 41.12 | 1400 nM | – | – | – |
| Cc1cc2nc(N)c3cnn(C)c3c2cc1C(=O)N1CC(C)CN1c1ncc(-c2nncs2)cc1F (stereo not shown) [Example 487, (4-amino-1,7-dimethyl-1H-pyrazolo[4,3-c]quinolin-8-yl)(2-(3-fluoro-5-(1,3,4-thiadiazol-2-yl)pyridin-2-yl)-4-methylpyrazolidin-1-yl)methanone] | – | 6.7 nM | 58 nM | 40.52 | 2350 nM | – | – | – |
| Cc1cc2nc(N)c3cnn(C)c3c2cc1C(=O)N1CC(C)CN1c1ncc(-c2cscn2)cc1F (stereo not shown) [Example 488, (4-amino-1,7-dimethyl-1H-pyrazolo[4,3-c]quinolin-8-yl)(2-(3-fluoro-5-(thiazol-4-yl)pyridin-2-yl)-4-methylpyrazolidin-1-yl)methanone] | – | 5.3 nM | 25 nM | 21.24 | 531 nM | – | – | – |
| Cc1cc2nc(N)c3cnn(C)c3c2cc1C(=O)N1CC(C)CN1c1ncc(C2CC2)cc1F (stereo not shown) [Example 489] | – | – | 54 nM | 26.04 | 1410 nM | 4.8 nM | – | – |
| COC(C)(C)C#Cc1cnc(N2CC(C)CN2C(=O)c2cc3c(cc2C)nc(N)c2cnn(C)c23)c(F)c1 (stereo not shown) [Example 491, (4-amino-1,7-dimethyl-1H-pyrazolo[4,3-c]quinolin-8-yl)(2-(3-fluoro-5-(3-methoxy-3-methylbut-1-yn-1-yl)pyridin-2-yl)-4-methylpyrazolidin-1-yl)methanone] | – | 8.6 nM | 189 nM | 11.81 | 2230 nM | – | – | – |
| Cc1cc2nc(N)c3cnn(C)c3c2cc1C(=O)N1CC(C)CN1c1ncc(C#CCO)cc1F (stereo not shown) [Example 492, (4-amino-1,7-dimethyl-1H-pyrazolo[4,3-c]quinolin-8-yl)(2-(3-fluoro-5-(3-hydroxyprop-1-yn-1-yl)pyridin-2-yl)-4-methylpyrazolidin-1-yl)methanone] | – | 3.3 nM | 37 nM | 52.49 | 1940 nM | – | – | – |
| Cc1cc2nc(N)c3cnn(C)c3c2cc1C(=O)N1CC(C)CN1c1ncc(C#CC(C)(C)O)cc1F (stereo not shown) [Example 493, (4-amino-1,7-dimethyl-1H-pyrazolo[4,3-c]quinolin-8-yl)(2-(3-fluoro-5-(3-hydroxy-3-methyl-but-1-yn-1-yl)pyridin-2-yl)-4-methylpyrazolidin-1-yl)methanone] | – | 5.1 nM | 68 nM | 27.94 | 1900 nM | – | – | – |
| C#Cc1cnc(N2CC(C)CN2C(=O)c2cc3c(cc2C)nc(N)c2cnn(C)c23)c(F)c1 (stereo not shown) [Example 494, (4-amino-1,7-dimethyl-1H-pyrazolo[4,3-c]quinolin-8-yl)(2-(5-ethynyl-3-fluoropyridin-2-yl)-4-methylpyrazolidin-1-yl)methanone] | – | 4.6 nM | 29 nM | 34.62 | 1000 nM | – | – | – |
| Cc1cc2nc(N)c3cnn(C)c3c2cc1C(=O)N1CC(C)CN1c1ncc(C#CCF)cc1F (stereo not shown) [Example 495, (4-amino-1,7-dimethyl-1H-pyrazolo[4,3-c]quinolin-8-yl)(2-(3-fluoro-5-(3-fluoroprop-1-yn-1-yl)pyridin-2-yl)-4-methylpyrazolidin-1-yl)methanone] | – | 15 nM | 69 nM | 24.00 | 1660 nM | – | – | – |
| Cc1cc2nc(N)c3ccncc3c2cc1C(=O)N1CC(C)CN1c1ncccc1F (stereo not shown) [Example 502, (5-amino-8-methylbenzo[C] [2,6]naphthyridin-9-yl)(2-(3-fluoropyridin-2-yl)-4-methylpyrazolidin-1-yl)methanone] | – | 5.2 nM | 140 nM | 10.79 | 1510 nM | – | – | – |
| [2H]C([2H])([2H])n1ncc2c(N)nc3cc(C)c(C(=O)N4CC(C)CN4c4ncccc4F)cc3c21 (stereo not shown) [Example 507, (4-amino-7-methyl-1-(methyl-D3)-1H-pyrazolo[4,3-c]quinolin-8-yl)(2-(3-fluoropyridin-2-yl)-4-methylpyrazolidin-1-yl)methanone] | – | 10.3 nM | 38 nM | 44.34 | 1680 nM | – | – | – |
| Cc1cc2nc(N)c3c(C)nn(C)c3c2cc1C(=O)N1CC(C)CN1c1ncccc1F (stereo not shown) [Example 509, (4-amino-1,3,7-trimethyl-1H-pyrazolo[4,3-c]quinolin-8-yl)(2-(3-fluoropyridin-2-yl)-4-methylpyrazolidin-1-yl) methanone] | – | 4.3 nM | 443 nM | – | > 10000 nM | – | – | – |
| Cc1cc2nc(N)c3c(c2cc1C(=O)N1CC(C)CN1c1ncccc1F)COC3C (stereo not shown) [Example 510] | – | – | 222 nM | 33.55 | 7450 nM | 4.8 nM | – | – |
| Cc1cc2nc(N)c3c(c2cc1C(=O)N1CC(C)CN1c1ncccc1F)COC3 (stereo not shown) [Example 512, (4-amino-7-methyl-1,3-dihydrofuro[3,4-c]quinolin-8-yl)(2-(3-fluoropyridin-2-yl)-4-methylpyrazolidin-1-yl)methanone] | – | 5 nM | 259 nM | 22.53 | 5830 nM | – | – | – |
